Measured values reported in US20230339915A1 (Vertex Pharmaceuticals Incorporated, priority 2020, published 2023).

Tests used:
[1] = target: NL20 human bronchial epithelial cells expressing human Z-AAT (Homo sapiens (Human), UniProt P01009, E366K); experiment: AAT Function Assay (MSD Assay NL20-SI Cell Line); assay type: cell-based; conditions: functionally active AAT (AAT-hNE complex, MSD) in supernatant of NL20 cells expressing human Z-AAT; read-out: NL20 Functional EC50
Method: A. AAT Function Assay (MSD Assay NL20-SI Cell Line)
Alpha-1 antitrypsin (AAT) is a SERpIN (serine protease inhibitor) that inactivates enzymes by binding to them covalently. This assay measured the amount of functionally active AAT in a sample in the presence of the disclosed Compounds 1-227 by determining the ability of AAT to form an irreversible complex with human neutrophil Elastase (hNE). In practice, the sample (cell supernatant, blood sample, or other) was incubated with excess hNE to allow AAT-Elastase complex to be formed with all functional AAT in the sample. This complex was then captured to a microplate coated with an anti-AAT antibody. The complex captured to the plate was detected with a labeled anti-Elastase antibody and quantitated using a set of AAT standards spanning the concentration range present in the sample. Meso Scale Discovery (MSD) plate reader, Sulfo-tag labeling, and microplates were used to provide high sensitivity and wide dynamic range.
Instrument(S): • Meso Sector S600 • Bravo • Washer dispenser • Multidrop Combi
Day 1 Cell Culture • 1. Harvest NL20 human bronchial epithelial cells expressing human Z-AAT in OptiMEM™ containing Pen/Strep (P/S) • 2. Seed at 16,000 cells/well in 30 μL (384 well plate) • 3. Centrifuge plates briefly up to speed (1200 rpm) and place into 37° C. incubator overnight
Day 2: Compound Addition and Coating Plates with Capture Antibody
Compound Addition: • 1. Dispense 40 μL of OptiMEM™ (P/S) with doxycycline (1:1000 stock=0.1 μM final) to each well of the compound plate using a multidrop Combi in hood • 2. Remove cell plate from incubator, flip/blot and take immediately to Bravo to transfer compounds • 3. Return plates to incubator overnight
Coat MSD Plates • 1. Dilute capture antibody (Polyclonal Goat anti-AAT) to 5 μg/mL (1:200) in PBS (no BSA). • 2. Dispense 25 μL of diluted capture antibody into all wells of MSD 384-well High Bind plate using the Multidrop equipped with a standard cassette. • 3. Incubate overnight at 4° C.
Prepare Blocker A (BSA) Solutions • 1. Prepare solution of 5% MSD Blocker A (BSA) following the manufacturer's instructions. • 2. Further dilute the 5% MSD Blocker A in PBS to 1% (Blocker A) as needed.
Block Plates • 1. Wash plate 1× with 50 μL Wash buffer (PBS+0.5% Tween 20), and adds 35 μL 5% Block A buffer to block non-specific binding on washer dispenser • 2. Rotate plates on shaker for 1 hour at 600 rpm
Prepare M-AA T Standards • 1. Dilute M-AAT stock to 1.6 μg/mL in 1% BSA Blocker A (Stock in −70° C.); then prepare 12×1:2 serial dilutions in 1% Blocker A • 2. The top starting final concentration on MSD plate is 320 ng/mL. These dilutions correspond to a final concentration of 320, 160, 80, 40, 20, 10, 5, 2.5, 1.25, 0.625, 0.312, 0.156 ng/mL.
Dilution Plate • 1. Add 80 μL of 1% Assay buffer to all wells except columns 1/24 (standards) with Multidrop Combi • 2. Add diluted standards to columns 1 and 24 • 3. Centrifuge dilution plates 1200 rpm briefly
Cell Plate • 1. Aspirate columns which will have the standards from the cell plates in the hood using 16-pin aspirator
Prepare Human Neutrophil Elastase (hNE) • 1. Prepare 1 μg/mL Human Neutrophil Elastase by diluting in 1% Blocker A. • a. Small 100 μg vial—add 1 mL PBS (100 μg/mL) • i. This can then be diluted 1:100 in 1% Assay Buffer for a final 1 μg/mL concentration
MSD—add hNE (20 μL/well) • 1. After the MSD plate has blocked for at least 1 hour, wash plate 1× with 50 μL Wash buffer (PBS+0.5% Tween 20) and then add 20 μL hNE to each well
Bravo—Cell Plate—Dilution Plate—MSD Plate
Using the Bravo aspirate 10 μL from the cell plate, transfer to the dilution plate (9-fold dilution) • 1. Mix 25 μL 3×, then aspirate 5 μL, transfer to MSD plate (5-fold dilution) • 2. Mix 10 μL 3×. Total dilution is 45 fold. • 3. Shake plates at 600 rpm for 1.5 hours
Add Functional Detection hNE Antibody • 1. Wash plate 1× with wash buffer • 2. […]

[2] = target: purified Z-AAT protein from human plasma (Homo sapiens (Human), UniProt P01009, E366K); experiment: Biochemical Assay (Z-AAT Elastase Activity Assay); conditions: purified Z-AAT pre-incubated with compound 1 hour, then human neutrophil elastase and fluorescent substrate
Sequence of purified Z-AAT protein from human plasma (P01009 25-418 E366K limits assumed): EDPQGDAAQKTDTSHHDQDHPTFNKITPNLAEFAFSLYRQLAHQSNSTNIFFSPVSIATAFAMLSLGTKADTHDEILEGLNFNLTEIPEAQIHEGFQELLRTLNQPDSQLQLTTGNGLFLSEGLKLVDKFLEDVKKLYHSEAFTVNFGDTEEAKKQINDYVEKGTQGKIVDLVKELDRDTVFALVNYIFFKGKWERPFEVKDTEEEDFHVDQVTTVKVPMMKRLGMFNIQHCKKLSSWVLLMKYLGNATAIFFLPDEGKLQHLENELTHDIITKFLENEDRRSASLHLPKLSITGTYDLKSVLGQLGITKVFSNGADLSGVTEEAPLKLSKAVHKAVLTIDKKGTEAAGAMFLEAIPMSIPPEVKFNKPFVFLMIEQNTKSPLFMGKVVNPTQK
Source text: B. Biochemical Assay (Z-AAT Elastase Activity Assay)
This assay measured the modulation of Compounds 1-227 on Z-AAT SERpIN activity using purified Z-AAT protein and purified human neutrophil elastase (hNE). Normally, when active monomeric Z-AAT encounters a protease such as trypsin or elastase, it forms a 1:1 covalent “suicide” complex in which both the AAT and protease are irreversibly inactivated. However, compounds binding to Z-AAT can lead to a decrease in SERpIN activity. In such cases, when a protease encounters compound-bound Z-AAT, the protease cleaves and inactivates Z-AAT without itself being inactivated.
Reagents • PBS buffer (media prep)+0.01% BRIJ35 detergent (Calbiochem catalog #203728) Opti-MEM media (Fisher 11058-021) • Human neutrophil elastase (hNE, Athens Research #16-14-051200) • 3.4 μM stock (0.1 mg/mL) prepared in 50 mM Na Acetate, pH 5.5, 150 mM NaCl, stored at −80° C. • Elastase substrate V (ES V, fluorescent peptide substrate MeOSuc-Ala-Ala-Pro-Val-AMC, Calbiochem catalog #324740) • 20 mM stock in DMSO, stored at −20° C. • Purified Z-AAT protein from human plasma; • 12.9 μM (0.67 mg/mL) Z-AAT Vertex Cambridge Sample 4942, from patient • #061-SSN, stored at −80 C
Plates • Corning 4511 (384 well black low volume)
Instruments • PerkinElmer® EnVision™
Pre-Incubation of Z-AAT with Compounds • 1. 7.5 μL of Z-AAT (20 nM) was incubated with compounds 1-227 in a GCA plate for 1 hour at room temperature
Addition of hNE • 1. 7.5 ul of HNE solution (3 nM in PBS+0.01% BRIJ35) added into GCA plate • 2. Incubate plate for 30 minutes to allow Z-AAT/HNE suicide complex formation.
Addition of Substrate and Read Plate on PE Envision • 1. 7.5 μL of substrate (300 μM solution of elastase substrate (ES V) in PBS+0.01% BRIJ35) dispensed per well into GCA plate • 2. Immediately read on Envision.

Sequence of NL20 human bronchial epithelial cells expressing human Z-AAT (P01009 25-418 E366K limits assumed): as above

EC50 [1] [µM] | IC50 [2] [µM] | Structure (SMILES)
0.5 to 2 | > 30 | Cc1cc(-n2c(C3CCOCC3)c(C[C@H]3C[C@@H](C(=O)O)C3)c3cc(O)ccc32)ccc1F [Compound 8]
0.5 to 2 | > 5 | Cc1cc(-n2c(C3CCOCC3)c([C@H]3C[C@@](C(=O)O)(C(F)(F)F)C3)c3cc(O)ccc32)ccc1F [Compound 9]
> 2 | > 30 | Cc1cc(-n2c(C3CCOCC3)c(CCC(F)(F)C(=O)O)c3cc(O)ccc32)ccc1F [Compound 10]
< 0.5 | > 30 | Cc1cc(-n2c(C3CCOCC3)c([C@H]3CC4(C[C@H](C(=O)O)C4)C3)c3cc(O)ccc32)ccc1F (stereo partly drawn) [Compound 11]
< 0.5 | > 5 | Cc1cc(-n2c(C3CCOCC3)c([C@H]3CC4(C[C@H](C(=O)O)C4)C3)c3cc(O)ccc32)ccc1F (stereo partly drawn) [Compound 12]
> 2 | > 30 | Cc1cc(-n2c(C3CCOCC3)c(CC3(C(=O)O)CCC3)c3cc(O)ccc32)ccc1F [Compound 13]
0.5 to 2 | > 30 | Cc1cc(-n2c(C3CCOCC3)c(CCC(C)(C)C(=O)O)c3cc(O)ccc32)ccc1F [Compound 14]
> 2 | > 30 | CO[C@]1(C(=O)O)C[C@H](c2c(C3CCOCC3)n(-c3ccc(F)c(C)c3)c3ccc(O)cc32)C1 [Compound 15]
> 2 | > 30 | CO[C@]1(C(=O)O)C[C@@H](c2c(C3CCOCC3)n(-c3ccc(F)c(C)c3)c3ccc(O)cc32)C1 [Compound 16]
> 2 | > 30 | Cc1cc(-n2c(C3CCOCC3)c([C@H]3C[C@H](C(=O)O)C3)c3cc(O)ccc32)ccc1F [Compound 20]
> 2 | > 30 | Cc1cc(-n2c(C3CCOCC3)c([C@H]3C[C@@H](C(=O)O)C3)c3cc(O)ccc32)ccc1F [Compound 21]
0.5 to 2 | 2 to 5 | Cc1cc(-n2c(C(C)C)c([C@H]3C[C@](C)(C(=O)O)C3)c3c(F)c(O)c(F)cc32)ccc1F [Compound 22]
0.5 to 2 | > 30 | Cc1cc(-n2c(C(C)C)c([C@H]3C[C@@](C)(C(=O)O)C3)c3c(F)c(O)c(F)cc32)ccc1F [Compound 23]
> 2 | > 30 | O=C(O)[C@H]1CC[C@@H](c2c(C3CCOCC3)n(-c3ccc(F)c(Cl)c3)c3ccc(O)cc32)CC1 [Compound 24]
0.5 to 2 | > 30 | Cc1cc(-n2c(C3CCOCC3)c(CC3CC(C(=O)O)C3)c3cc(O)ccc32)ccc1F (stereo not drawn) [Compound 25]
> 2 | > 30 | Cc1cc(-n2c(C(C)C)c(CC(C)C(=O)O)c3cc(O)ccc32)ccc1F (stereo not drawn) [Compound 26]
0.5 to 2 | > 5 | C[C@]1(C(=O)O)C[C@H](c2c(C3CCOCC3)n(-c3ccc(F)c(Cl)c3)c3ccc(O)cc32)C1 [Compound 27]

EC50 [1] [µM] | IC50 [2] [µM] | Structure (SMILES)
> 2 | > 30 | C[C@]1(C(=O)O)C[C@@H](c2c(C3CCOCC3)n(-c3ccc(F)c(Cl)c3)c3ccc(O)cc32)C1 [Compound 28]
0.5 to 2 | > 30 | CC(C)(CCc1c(C2CCOCC2)n(-c2ccc(F)c(Cl)c2)c2ccc(O)cc12)C(=O)O [Compound 29]
0.5 to 2 | > 30 | CC(C)(CCc1c(C2CCOCC2)n(-c2ccc(F)cc2)c2ccc(O)cc12)C(=O)O [Compound 30]
< 0.5 | > 5 | O=C(O)C1CC2(C1)CC(c1c(C3CCOCC3)n(-c3ccc(F)c(Cl)c3)c3ccc(O)cc13)C2 (stereo not drawn) [Compound 31]
< 0.5 | > 5 | O=C(O)[C@H]1CC2(C1)C[C@H](c1c(C3CCOCC3)n(-c3ccc(F)c(Cl)c3)c3ccc(O)cc31)C2 (stereo partly drawn) [Compound 32]
< 0.5 | > 5 | O=C(O)[C@H]1CC2(C1)C[C@H](c1c(C3CCOCC3)n(-c3ccc(F)c(Cl)c3)c3ccc(O)cc31)C2 (stereo partly drawn) [Compound 33]
> 2 | > 30 | O=C(O)[C@H]1C[C@H](Cc2c(C3CCOCC3)n(-c3ccc(F)c(Cl)c3)c3ccc(O)cc23)C1 [Compound 34]
> 2 | > 30 | O=C(O)[C@H]1C[C@@H](Cc2c(C3CCOCC3)n(-c3ccc(F)cc3)c3ccc(O)cc23)C1 [Compound 35]
> 2 | > 30 | O=C(O)[C@H]1C[C@H](Cc2c(C3CCOCC3)n(-c3ccc(F)cc3)c3ccc(O)cc23)C1 [Compound 36]
0.5 to 2 | > 5 | O=C(O)[C@]1(C(F)(F)F)C[C@@H](c2c(C3CCOCC3)n(-c3ccc(F)c(Cl)c3)c3ccc(O)cc32)C1 [Compound 37]
> 2 | > 30 | O=C(O)[C@]1(C(F)(F)F)C[C@H](c2c(C3CCOCC3)n(-c3ccc(F)c(Cl)c3)c3ccc(O)cc32)C1 [Compound 38]
> 2 | > 30 | C[C@]1(C(=O)O)C[C@H](c2c(C3CCOCC3)n(-c3ccc(F)c(F)c3)c3ccc(O)cc32)C1 [Compound 39]
> 2 | > 30 | C[C@]1(C(=O)O)C[C@@H](c2c(C3CCOCC3)n(-c3ccc(F)c(F)c3)c3ccc(O)cc32)C1 [Compound 40]
0.5 to 2 | > 30 | O=C(O)[C@H]1CC2(C1)C[C@H](c1c(C3CCOCC3)n(-c3ccc(F)c(F)c3)c3ccc(O)cc31)C2 (stereo partly drawn) [Compound 41]
0.5 to 2 | > 30 | O=C(O)[C@H]1CC2(C1)C[C@H](c1c(C3CCOCC3)n(-c3ccc(F)c(F)c3)c3ccc(O)cc31)C2 (stereo partly drawn) [Compound 42]
> 2 | > 30 | Cc1cc(-n2c(C3CCS(=O)(=O)CC3)c([C@H]3C[C@@](C(=O)O)(C(F)(F)F)C3)c3cc(O)ccc32)ccc1F [Compound 43]
